Results from patent US6887896B1, “7-[(7-Alkoxy)-chrom-3-en-6-yl]-heptatrienoic acid and 7-[(3-alkoxy)-5,6-dihydronaphthalen-2-yl]-heptatrienoic acid derivatives having serum glucose reducing activity” (Allergan, Inc., priority 2003, dated 2005).

Assays:
RXRα = target: T1, RXRα (Homo sapiens, UniProt P19793); assay: holoreceptor transactivation assay, RXRα; assay type: cell-based; details: for EC50: holoreceptor transactivation, read-out: RXR Trans. EC50 α; for Emax: percentage compared to the standard compound, read-out: RXR Trans. efficacy (number in parentheses) α
T1 construct: expressed in transfected cells
T1 sequence (P19793 1-462): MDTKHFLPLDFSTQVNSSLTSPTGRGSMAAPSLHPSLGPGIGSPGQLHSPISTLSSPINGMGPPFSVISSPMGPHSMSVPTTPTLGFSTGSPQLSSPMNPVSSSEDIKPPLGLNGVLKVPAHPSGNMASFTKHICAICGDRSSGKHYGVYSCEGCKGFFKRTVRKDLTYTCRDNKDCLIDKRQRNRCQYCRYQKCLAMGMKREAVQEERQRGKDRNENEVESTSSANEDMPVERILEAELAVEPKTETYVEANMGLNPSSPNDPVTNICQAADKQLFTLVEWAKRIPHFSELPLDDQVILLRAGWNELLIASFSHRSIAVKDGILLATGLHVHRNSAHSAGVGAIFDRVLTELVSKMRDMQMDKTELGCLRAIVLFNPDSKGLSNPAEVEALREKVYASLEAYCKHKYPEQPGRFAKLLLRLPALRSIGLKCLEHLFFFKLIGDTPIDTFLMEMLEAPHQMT
From the text: (§1) Specifically, one such assay is a chimeric receptor transactivation assay which tests for agonist-like activity in the R RAPE and RAR7 receptor subtypes, and which is based on work published by Feigner, P. L. and Holm, M (1989) Focus, 112 is described in detail in U.S. Pat. No. 5,455,265. The specification of U.S. Pat. No. 5,455,265 is hereby expressly incorporated by reference. A holoreceptor transactivation assay and a ligand binding assay which measure the antagonist/agonist like activity of the compounds of the invention, or their ability to bind to the several retinoid receptor subtypes, respectively, are described in published PCT Application No. WO WO93/11755 (particularly on pages 30-33 and 37-41) published on Jun. 24, 1993, the specification of which is also incorporated herein by reference. A detailed experimental procedure for holoreceptor transactivations has been described by Heyman et al. Cell 68, 397-406, (1992); Allegretto et al. J. Biol. Chem. 268, 26625-26633, and Mangelsdorf et al. The Retinoids: Biology, Chemistry and Medicine, pp 319-349, Raven Press Ltd., New York, which are expressly incorporated herein by reference. The results obtained in this assay are expressed in EC50 numbers, as they are also in the chimeric receptor transactivation assay. The results of the ligand binding assay are expressed in Ki numbers. (See Cheng et al. Biochemical Pharmacology Vol. 22 pp 3099-3108, expressly incorporated herein by reference.)
(§2) Efficacy in a transactivation assay is expressed as a percentage of the maximum potency attained by the compound compared to a standard which, in this case, is the compound named (2E,4E,1′S,2′S)-3-methyl-5-[2′-methyl-2′-(5,5,8,8-tetramethyl-5,6,7,8-tetrahydro-naphthalen-2-yl)-cyclopropyl]-penta-2,4-dienoic acid. This standard compound is described in U.S. Pat. No. 6,114,533.
(§3) The specification of this application for patent is organized in several sections in accordance with structural Formulas A through F each of which discloses a group of preferred compounds within the scope of the invention. Tables that disclose the activity of certain exemplary compounds of the invention in the above-described RXR receptor transactivation and binding assays are found in the corresponding sections. […] The transactivation data pertaining to the activation of RXR receptors were obtained in the holoreceptor assay.
(§4) Generally speaking, in the tables disclosing the results of transactivation and binding assays the numbers in parentheses indicate efficacy as a percentage compared to the standard compound, (2E,4E,1′S,2′S)-3-methyl-5-[2′-methyl-2′-(5,5,8,8-tetramethyl-5,6,7,8-tetrahydro-naphthalen-2-yl)cyclopropyl]-penta-2,4-dienoic acid and the other numbers indicate the measured EC50 and K; in nanomolar concentration.

RXRγ = target: T2, RXRγ (UniProt P28705); assay: holoreceptor transactivation assay, RXRγ; assay type: cell-based; details: for EC50: holoreceptor transactivation, read-out: RXR Trans. EC50 γ; for RXR Trans. efficacy (number in parentheses) γ: percentage compared to the standard compound
T2 sequence (P28705 1-463): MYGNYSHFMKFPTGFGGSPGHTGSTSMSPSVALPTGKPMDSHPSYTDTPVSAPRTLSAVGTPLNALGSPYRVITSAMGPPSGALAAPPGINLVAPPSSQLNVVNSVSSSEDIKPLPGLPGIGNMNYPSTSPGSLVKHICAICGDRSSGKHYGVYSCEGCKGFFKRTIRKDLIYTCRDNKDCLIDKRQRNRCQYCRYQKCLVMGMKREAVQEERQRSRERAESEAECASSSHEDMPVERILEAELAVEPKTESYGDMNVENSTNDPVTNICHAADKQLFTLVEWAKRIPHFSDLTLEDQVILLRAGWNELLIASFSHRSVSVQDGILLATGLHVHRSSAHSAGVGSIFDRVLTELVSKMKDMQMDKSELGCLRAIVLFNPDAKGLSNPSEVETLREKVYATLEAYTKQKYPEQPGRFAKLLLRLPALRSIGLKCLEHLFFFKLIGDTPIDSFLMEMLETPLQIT
From the text: as §1, §2, §3, §4

RARα = target: T3, RARα (Homo sapiens, UniProt P10276); assay: ligand binding assay, RARα; details: for Ki: read-out: RAR Bind. Ki α; for Kd: Table 9 (Formula F), read-out: RAR α Kd
T3 sequence (P10276 1-462): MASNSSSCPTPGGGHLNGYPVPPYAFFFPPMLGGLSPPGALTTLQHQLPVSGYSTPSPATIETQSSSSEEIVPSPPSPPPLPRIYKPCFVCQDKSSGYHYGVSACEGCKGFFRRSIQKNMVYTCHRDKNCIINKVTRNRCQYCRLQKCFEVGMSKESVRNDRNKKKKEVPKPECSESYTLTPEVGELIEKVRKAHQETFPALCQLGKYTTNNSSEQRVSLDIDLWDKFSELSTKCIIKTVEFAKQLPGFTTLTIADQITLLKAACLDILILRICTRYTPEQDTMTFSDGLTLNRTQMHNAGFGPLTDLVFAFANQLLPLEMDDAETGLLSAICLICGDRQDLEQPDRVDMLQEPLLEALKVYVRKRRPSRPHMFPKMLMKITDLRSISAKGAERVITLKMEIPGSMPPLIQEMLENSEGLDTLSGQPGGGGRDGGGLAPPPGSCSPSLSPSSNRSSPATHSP
From the text: as §1, §4

Row | EC50 (RXRα) | Emax (RXRα) | EC50 (RXRγ) | RXR Trans. efficacy (number in parentheses) γ (RXRγ) | Ki (RARα) | Kd (RARα) | SMILES
1 | 0.002 µM | 56% | 0.005 µM | 47% | 0.738 µM |  | CCOc1c(\C(C)=C/C=C/C(C)=C/C(=O)O)cc2c(c1Cl)OC(C)(C)C=C2C(C)C [Compound 50, 7-(8-Chloro-4-isopropyl-7-ethoxy-2,2-dimethyl-2H-chromen-6-yl)-3-methyl-octa-2E,4E,6Z-trienoic acid]
2 | 0.009 µM | 25% | 0.022 µM | 13% | 0.422 µM |  | CCOc1c(\C(=C/C=C/C(C)=C/C(=O)O)CC)cc2c(c1Cl)OC(C)(C)C=C2C(C)C [Compound 51]
3 | > 10 µM |  | > 10 µM |  | 4.1 µM |  | CCC1=CC(C)(C)Oc2cc(OC)c(\C(C)=C(F)/C=C/C(C)=C/C(=O)O)cc21 [Compound 120, 7-(4Ethyl-7-methoxy-2,2-dimethyl-2H-chromen-6-yl)-6-fluoro-3-methyl-octa-2E,4E,6E-trienoic acid]
4 | 0.005 µM | 36% | 0.009 µM | 52% | 0.8 µM |  | COc1cc2c(cc1\C(C)=C(F)/C=C/C(C)=C/C(=O)O)C(C(C)(C)C)=CC(C)(C)O2 [Compound 122, 7-(4-tert-Butyl-7-methoxy-2,2-dimethyl-2H-chromen-6-yl)-6-fluoro-3-methyl-octa-2E,4E,6E-trienoic acid]
5 | > 10 µM |  | > 1 µM |  | > 10 µM |  | CCOc1cc2c(cc1\C(C)=C(F)/C=C/C(C)=C/C(=O)O)C(CC)=CC(C)(C)O2 [Compound 123, 7-(7-Ethoxy-4-ethyl-2,2-dimethyl-2H-chromen-6-yl)-6-fluoro-3-methyl-octa-2E,4E,6E-trienoic acid]
6 | 0.0008 µM | 86% | 0.0002 µM | 109% | 3.4 µM |  | COc1c(\C(C)=C(F)/C=C/C(C)=C/C(=O)O)cc2c(c1Cl)OC(C)(C)C=C2C(C)C [Compound 170, 7-(8-Chloro-4-isopropyl-7-methoxy-2,2-dimethyl-2H-chromen-6-yl)-6-fluoro-3-methyl-octa-2E,4E,6E-trienoic acid]
7 | 0.0054 µM | 52% | 0.01 µM | 46% | 0.404 µM |  | CCOc1c(\C(C)=C(F)/C=C/C(C)=C/C(=O)O)cc2c(c1Cl)OC(C)(C)C=C2C(C)C [Compound 172, 7-(8-Chloro-4-isopropyl-7-ethoxy-2,2-dimethyl-2H-chromen-6-yl)-6-fluoro-3-methyl-octa-2E,4E,6E-trienoic acid]
8 | 0.0048 µM | 18% | 0.006 µM | 10% | 0.102 µM |  | CCOc1c(\C(CC)=C(F)/C=C/C(C)=C/C(=O)O)cc2c(c1Cl)OC(C)(C)C=C2C(C)C [Compound 173]
9 | 0.059 µM | 8% | 0.114 µM | 6% | 0.532 µM |  | CC(/C=C/C(F)=C(/C)c1cc2c(c(Cl)c1OC(C)C)OC(C)(C)C=C2C(C)C)=C\C(=O)O [Compound 174]
10 | 0.041 µM | 69% | 0.041 µM | (73) % | 0.301 µM |  | CCOc1cc2c(cc1\C(CC)=C(F)/C=C/C(C)=C/C(=O)O)C=CCC2(C)C [Compound A-77]
11 | 0.0004 µM | 66% | 0.0006 µM | 71% |  | 0.07 µM | CCOc1c(\C(C)=C(F)/C=C/C(C)=C/C(=O)O)cc2c(c1Br)C(C)(C)CC=C2C(C)C [Compound A-169, (2E,4E,6E)-7-(4-Bromo-3-ethoxy-8-isopropyl-5,5-dimethyl-5,6-dihydro-naphthalen-2-yl)-6-fluoro-3-methyl-octa-2.4,6-trienoic acid]
12 | 0.019 µM | 31% | 0.018 µM | 12% |  | 0.141 µM | CC(/C=C/C(F)=C(/C)c1cc2c(c(Br)c1OC(C)C)C(C)(C)CC=C2C(C)C)=C\C(=O)O [Compound A-172, (2E,4E,6E)-7-(4-Bromo-3-isopropoxy-8-isopropyl-5,5-dimethyl-5,6-dihydro-naphthalen-2-yl)-6-fluoro-3-methyl-octa-2,4,6-trienoic acid]
13 | 0.001 µM | 24% | 0.002 µM | 12% |  | 0.997 µM | CCOc1c(\C(C)=C(F)/C=C/C(C)=C/C(=O)O)cc2c(c1Br)C(C)(C)CC=C2C(C)(C)C [Compound A-174, (2E,4E,6E)-7-(4-Bromo-8-tert-butyl-3-ethoxy-5,5-dimethyl-5,6-dihydro-naphthalen-2-yl)-6-fluoro-3-methyl-octa-2,4,6-trienoic acid]
14 | 0.0001 µM | 72% | 0.0002 µM | 73% |  | 0.06 µM | CCOc1c(\C(C)=C(F)/C=C/C(C)=C/C(=O)O)cc2c(c1Cl)C(C)(C)CC=C2C(C)C [Compound A-177, (2E,4E,6E)-7-(4-Chloro-3-ethoxy-8-isopropyl-5,5-dimethyl-5,6-dihydronaphthalen-2-yl)6-fluoro-3-methyl-octa-2,4,6-trienoic acid]
